Reference: US20230123585A1, “COMPOSITIONS AND METHODS FOR TREATING OR PREVENTING CANCER USING DEUBIQUITINASE INHIBITORS” (The University of Chicago, priority 2020, published 2023)

Assays:
A375 and HCT116 cells = experiment: Cell viability by SRB assay of A375 and HCT116 cells treated with Ezh2 inhibitors without or with EOAI; assay type: cell-based; details: 48 hr; A375: GSK343 10 μM, UNC1999 5 μM, 0.5 μM EOAI; HCT116: GSK343 10 μM, UNC1999 10 μM, 1 μM EOAI
Procedure: FIGS. 20A-20B: (A) A375 cells were treated with GSK343 10 μM, UNC1999 5μM without or with 0.5 μM EOAI3402143 (EOAI) for 48 hr before measuring cell viability by SRB assay. Data are presented as relative to the R-WT cells without drug treatment (n=3 per group, data represent mean±SEM). (B) HCT116 cells were treated with GSK343 10 μM, UNC1999 10 μM without or with 1 μM EOAI3402143 (EOAI) for 48 hr before measuring cell viability by SRB assay. Data are presented as relative to the R-WT cells without drug treatment (n=3 per group, data represent mean±SEM).
Cell Proliferation Assay. Cells were seeded in 96-well plates. The cell proliferation was assessed by SRB assay (Vichai and Kirtikara, 2006) at various time points. Briefly, cells after treatments were fixed with 10% TCA then stained with 0.05% SRB. After wash, bound SRB was solubilized with 10 mM Trizma base and measured at 515 nm.

[1] = test system: JQ1-insensitive PDAC cells; experiment: Cell viability with JQ1 in JQ1-insensitive cells upon knockdown of METTL3; assay type: cell-based; details: series of JQ1 concentrations
Source text: (§1) FIGS. 15A-15D: The results of the inhibition rates of JQ1 in different PDAC cell lines. (B) The correlation analysis of gene expression of BRD family genes and METTL3 in PDAC from TGCA and GTEx database. (C) The polyA RNA m6A level changes upon JQ1 treatment compared to the DMSO control in different PDAC cell lines. (D) The cell viability changes with JQ1 treatment with a series concentrations in the JQ1-insensitive cells upon the knockdown of METTL3 and the JQ1-sensitive cells upon the overexpression of METTL3 compared to control.

JQ1-sensitive PDAC cells = experiment: Cell viability with JQ1 in JQ1-sensitive cells upon overexpression of METTL3; assay type: cell-based; details: series of JQ1 concentrations
Source text: as §1

METTL3 in 8902 cell line = experiment: METTL3 RNA and protein level changes with JQ1 treatment in JQ1-insensitive cells; assay type: cell-based; details: 8902 cell line (JQ1-insensitive)
Source text: (§2) FIGS. 16A-16B: (A) The protein level changes of METTL3 with JQ1 treatment in the JQ1-insensitive cells compared to DMSO control (left); the RNA level changes of METTL3 the JQ1-insensitive cells with JQ1 treatment compared to DMSO control (mid); the polyA RNA m6A level changes in JQ1-insensitive cells among the knockdown control and DMSO control samples, the knockdown control and JQ1 treatment samples, the METTL3 knockdown and DMSO control, and the METTL3 knockdown and JQ1 treatment samples (right). (B) The protein level changes of METTL3 with JQ1 treatment in the JQ1-sensitive cells compared to DMSO control (left); the RNA level changes of METTL3 the JQ1-sensitive cells with JQ1 treatment compared to DMSO control (mid); the polyA RNA m6A level changes in JQ1-sensitive cells among the knockdown control and DMSO control samples, the knockdown control and JQ1 treatment samples, the METTL3 knockdown and DMSO control, and the METTL3 knockdown and JQ1 treatment samples (right).

[2] = test system: polyA RNA m^6A in JQ1-insensitive cells (8902 cell line); experiment: polyA RNA m^6A level upon JQ1 treatment in JQ1-insensitive PDAC cells; assay type: cell-based
Source text: as §1, with “control. […]” for “control.”
(§3) LC-MS/MS quantification of m^6A in poly(A) RNA. mRNA was extracted from the total RNA using 2 rounds of the Dynabeads mRNA purification kit. […] The nucleosides were quantified by using the nucleoside-to-base ion mass transitions of 282 to 150 (m^6A) and 268 to 136 (A). Quantification was carried out by comparison with a standard curve obtained from pure nucleoside. The ratio of m^6A to A was calculated based on the calibrated concentrations (Liu et al., 2018).

[3] = test system: polyA RNA m^6A in JQ1-sensitive cells (Mia cell); experiment: polyA RNA m^6A level upon JQ1 treatment in JQ1-sensitive PDAC cells; assay type: cell-based
Source text: as §1, with “control. […]” for “control.”
as §3

PDAC cell lines = experiment: Inhibition rates of JQ1 in a panel of 9 PDAC cell lines; assay type: cell-based
Source text: as §1

METTL3 in Mia cell = experiment: METTL3 RNA and protein level changes with JQ1 treatment in JQ1-sensitive cells; assay type: cell-based; details: dose-dependent
Source text: as §2

ubiquitination of METTL3 = experiment: Ubiquitination of METTL3 in A375 cells transfected with HA-ubiquitin (IP anti-METTL3, immunoblot anti-HA); assay type: cell-based, human; details: 10 μM MG-132 and 10 μM EOAI3402143 or 30 μM vialinin A for 8 h
Procedure: (§4) FIGS. 11A-11G: USP5 is Required for ERK-Mediated METTL3 Stabilization. (A) A375 cells transfected with HA-ubiquitin (ub) were treated with 10 μM MG-132 and MEK inhibitor PD0325901 for 8 h. The ubiquitination of METTL3 was detected by IP with anti-METTL3 and immunoblot with anti-HA. (B) After 8 h treatment with 10 μM PD0325901 with or without 10 μM MG-132, cell lysates from A375 cells were analyzed by immunoblot. (C) A375 cells were treated with various concentrations of PD0325901 for 1 h. Cell lysates were subjected to IP with METTL3 antibody followed by immunoblot. (D) 293T cells transfected as indicated were subjected to IP/immunoblot analysis. (E) Immunofluorescence analysis of myc-METTL3 (green) in mESC stable transfectants. DAPI (blue) was used to mark the nucleus. (F) Lysates of 293T cells transfected as indicated were subjected to IP with anti-Flag antibody followed by immunoblot. (G) Immunofluorescence analysis of 293T cells co-transfected with myc-METTL3 (green), Flag-USP5 (red) with or without constitutively active B-RAF.
FIGS. 14A-14I: Phosphorylation of the m^6A Methyltransferase Complex May Affect Tumorigenesis. […] (B) LC-MS/MS quantification of the m^6A/A ratio in mRNA of melanoma cell lines. (C) After 8 h treatment with 10 μM PD0325901 or 0.1 μM tramentib, cell lysates from HCT-116 cells were analyzed by immunoblot. […] The ubiquitination of METTL3 was detected by IP with anti-METTL3 and immunoblot with anti-HA. (F) After 8 hr treatment with 10 μM EOAI3402143 (EOAI) or 30 μM vialinin A, cell lysates from HCT-116 cells were analyzed by immunoblot. […] (I) LC-MS/MS quantification of the m^6A/A ratio in mRNA of breast cancer cell lines.
Immunoprecipitation, immunoblotting, and in vitro kinase assay. […] Primary antibodies were detected by HRP-linked secondary antibodies (Cell Signaling) together with SuperSignal West Pico Plus chemiluminescent substrate (Thermo Scientific) and imaged in a FluorChem R system (ProteinSimple).

[4] = test system: METTL3 / m^6A methyltransferase complex in A375 cells; experiment: Immunoblot of METTL3 / m^6A methyltransferase complex protein in A375 cell lysates; assay type: cell-based, human; details: A375 cells (also HCT-116, FIG. 14F), 8 hr, 10 μM EOAI3402143 or 30 μM vialinin A
Procedure: (§5) FIGS. 6A-6H: Phosphorylation of the m^6A Methyltransferase Complex May Affect Tumorigenesis. (A) Lysates of A375 stable transfectants harvested at different time points after treatment with cycloheximide (CHX) 10 μg/ml were analyzed by immunoblot. (B) LC-MS/MS quantification of the m^6A/A ratio in mRNA of A375 stable transfectants. (C) After 8 h treatment with 10 μM PD0325901 or 0.1 μM tramentib, cell lysates from A375 cells were analyzed by immunoblot. (D) LC-MS/MS quantification of the m^6A/A ratio in mRNA of A375 cells treated with 10 μM PD0325901 or 0.1 μM tramentib for 48 h. (E) After 8hr treatment with 10 μM EOAI3402143 (EOAI) or 30 μM vialinin A , cell lysates from A375 cells were analyzed by immunoblot. (F) A375 stable transfectants as indicated were treated with 3 μM EOAI3402143 (EOAI) or 10 μM vialinin A before measuring cell viability by SRB assay. Data are presented as relative to the R-WT cells without drug treatment (n=3 per group, data represent mean±SEM). (G) Immunofluorescence analysis of METTL3 (green) in SKBR3 cells treated with 1 μM tucatinib and 1 μM lapatinib for 8 hr. DAPI (blue) was used to mark the nucleus. (H) LC-MS/MS quantification of the m^6A/A ratio in mRNA of SKBR3 and BT474 cells treated with 1 μM tucatinib and 1 μM lapatinib for 48 h. (See also FIG. 14.)
as §4
Immunoprecipitation, immunoblotting, and in vitro kinase assay. Immunoprecipitation (IP) and immunoblotting (IB) were performed as previously described (Sun et al., 2016). In brief, protein samples were isolated from respective cells by lysis in RIPA buffer (1% Triton X-100, 150 mM NaCl, 20 mM Na2PO4, pH 7.4) containing Halt Protease and Phosphatase Inhibitor Cocktail (Thermo Scientific). Subsequently, a BCA assay (Thermo Scientific) was used to determine the protein concentrations. For IP, indicated antibody and protein A/G magnetic beads (Thermo Scientific) were incubated with lysate at 4° C. overnight followed by washing and elution with sample buffer. Equal amounts of protein were separated by SDS-PAGE followed by wet transfer to PVDF membranes. Blots were blocked with 5% non-fat milk or BSA and incubated with respective primary antibody at 4° C. overnight. Primary antibodies were detected by HRP-linked secondary antibodies (Cell Signaling) together with SuperSignal West Pico Plus chemiluminescent substrate (Thermo Scientific) and imaged in a FluorChem R system (ProteinSimple).

[5] = test system: A375 and HCT-116 stable transfectants; experiment: Cell viability by SRB assay of A375 and HCT-116 stable transfectants treated with USP5 inhibitors; assay type: cell-based; details: A375 1 μM, HCT-116 2 μM EOAI, 48 hr
Procedure: as §5, with “(F) A375 stable transfectants as indicated were treated with 3 μM EOAI3402143 (EOAI) or 10 μM vialinin A before measuring cell viability by SRB assay. Data are presented as relative to the R-WT cells without drug treatment (n=3 per group, data represent mean±SEM). (G) Immunofluorescence analysis of METTL3 (green) in SKBR3 cells treated with 1 μM tucatinib and 1 μM lapatinib for 8 hr. DAPI (blue) was used to mark the nucleus.” left out, “(See also FIG. 14.)” left out
FIGS. 14A-14I: Phosphorylation of the m^6A Methyltransferase Complex May Affect Tumorigenesis. […] (B) LC-MS/MS quantification of the m^6A/A ratio in mRNA of melanoma cell lines. (C) After 8 h treatment with 10 μM PD0325901 or 0.1 μM tramentib, cell lysates from HCT-116 cells were analyzed by immunoblot. […] The ubiquitination of METTL3 was detected by IP with anti-METTL3 and immunoblot with anti-HA. (F) After 8 hr treatment with 10 μM EOAI3402143 (EOAI) or 30 μM vialinin A, cell lysates from HCT-116 cells were analyzed by immunoblot. […]

CCCc1cc(C)[nH]c(=O)c1CNC(=O)c1cc(-c2ccnc(N3CCN(C)CC3)c2)cc2c1cnn2C(C)C [GSK343]
combination effect on cell viability with the USP5 inhibitor EOAI (A375 and HCT116 cells): synergism

Cc1sc2c(c1C)C(c1ccc(Cl)cc1)=N[C@@H](CC(=O)OC(C)(C)C)c1nnc(C)n1-2 [JQ1]
viability of JQ1-insensitive cells, knockdown of METTL3 together with JQ1 treatment [1]: synergistically reduce
effect of JQ1 treatment upon overexpression of METTL3 in JQ1-sensitive cell (JQ1-sensitive PDAC cells): inhibits
METTL3 RNA level (METTL3 in 8902 cell line): moderate effect
METTL3 protein level (METTL3 in 8902 cell line): less of an effect
polyA RNA m^6A, JQ1 treatment after METTL3 knockdown ([2]; 8902 cell line (JQ1-insensitive)): further reduced
polyA RNA m^6A changes ([2]; JQ1-insensitive PDAC cells, versus DMSO control): moderate to negligible
polyA RNA m^6A ([3]; JQ1-sensitive PDAC cells, versus DMSO control): dramatically decreased
polyA RNA m^6A level ([3]; Mia cell (JQ1-sensitive), dose-dependent): dramatic decreases
inhibition effect (anticancer activity) (PDAC cell lines): varies among different cell types
METTL3 RNA level (METTL3 in Mia cell): dramatic decreases
METTL3 protein level (METTL3 in Mia cell): dramatic decreases

CCCc1cc(C)[nH]c(=O)c1CNC(=O)c1cc(-c2ccc(N3CCN(C(C)C)CC3)nc2)cc2c1cnn2C(C)C [UNC199]
combination effect on cell viability with the USP5 inhibitor EOAI (A375 and HCT116 cells): synergism

CCCC(NC(=O)/C(C#N)=C/c1nc(Cl)ccc1Cl)c1ccc(OCCN2CCOCC2)cc1 (centres unmarked) [EOAI3402143]
ubiquitination of METTL3 (ubiquitination of METTL3): increased
METTL3 protein level [4]: decreased
effect of knockdown of METTL3 on sensitivity of cells to the USP5 inhibitor [5]: sensitized
effect of overexpression of METTL3 on sensitivity of cells to the USP5 inhibitor [5]: attenuated
